In patent US20200316159A1, “SUSTAINED RELEASE COMPOSITIONS OF KAPPA-OPIOID RECEPTOR AGONIST” (JT PHARMACEUTICALS, INC., priority 2016, published 2020):
Entries after “also recorded” stand apart in the source; their conditions may differ.

Experiments:
[1] = test system: peripheral pain (acetic acid-induced writhing); test: Acetic acid-induced writhing model (Example 1); assay type: in vivo, rat (male Sprague-Dawley)
Description: Acetic Acid-Induced Writhing Model.
This protocol is a well-established model of peripheral pain. Following oral or i.v. administration of compound, rats are rested for 20 min before i.p. injection with 2 ml/kg of 3% acetic acid. Animals are then rested an additional 10 min before being placed in a 10×10 inch chamber. A video of the rats is then recorded for next 20 min. The video is subsequently blindly scored by an investigator who examines each rat every 20 sec for the entire 20 min (60 individual observations). At each observation rats are scored on whether they are writhing or not. Writhing is defined as a constriction of the abdominal area, often with extension of the hind legs. At the end of the experiment the percent of the time the animal was writhing was calculated. The dose-response curves and EC50 values were generated using GraphPad Prism®.
As an initial biological screen the potential for oral availability of the 18 peptides in our library were evaluated in a well-established model of peripheral pain, the acetic acid-induced writhing assay. Rats were administered the various compounds by oral gavage at a screening dose of 20 mg/kg 20 min before i.p. injection with 2 ml/kg of 3% acetic acid. 10 min later animals were assessed for writhing as indicated in the methods section. […] Thus, several of the Arg modifications can impart CR665 with the ability to cross the gut barrier. Compounds 3, 7, 9, 11 and 17 were selected for further analysis.

kappa opioid receptor = kappa opioid receptor (Homo sapiens, UniProt P41145); test: Opioid receptor activation assay, DiscoveRx PathHunter Beta-Arrestin, kappa; assay type: cell-based
Excerpt: Opioid Receptor Activation Assay.
PathHunter™ Beta-Arrestin GPCR Functional Profiling and Screening cell lines that express the individual opioid receptors were obtained from DiscoveRx (Fremont, Calif.). These cells express the kappa (or mu or delta) opioid receptor fused to a proprietary β-galactosidase enzyme fragment and the […]-arrestin gene fused to an enzyme acceptor (the remaining fragment of β-galactosidase). Upon activation of the receptor, β-arrestin is recruited to the GPCR and the β-galactosidase is activated through enzyme complementation. Cells were grown using standard cell culture techniques and then plated at 30,000 cells/well in 90 μl in a 96 well white, clear bottom plate and incubated overnight. Dilutions were prepared in dilution buffer (HBBS, 20 mMHepes, 0.1% BSA) and 10 μl added per well. Plates were then incubated for 90 min at 37° C. in a water-saturated atmosphere. Plates were then allowed to come to room temp and DiscoveRx's proprietary developing agent added as recommended by the manufacturer. This agent contains a detergent, 6-O-β-galactopyranosyl-luciferen and luciferase. Plates were then incubated for 1 hr at room temperature before being read on a luminometer. Antagonist studies were performed in an identical manner except after the overnight incubation 10 μl media was removed and replaced with drug or naloxone at the indicated concentration. […] To calculate % maximal luminescence, background was subtracted from the experimental values and this was divided by maximal luminescence and multiplied by 100.
To confirm this, and to determine their relative activities, we assessed their efficiency using PathHunter™ Beta-Arrestin GPCR Functional Profiling and Screening cell lines from DiscoveRx (Fremont, Calif.) as described in the Materials and Methods section.

[2] = test system: rewarding properties (compartment preference); test: Conditioned place preference; assay type: in vivo, rat; settings: 20 mg/kg p.o., alternate treatment over eight days; listed as JT09
Description: Conditioned Place Preference.
To test whether JT09 was able to condition appetitive behaviors, we used a conditioned place procedure. On day one, rats were habituated to a three-compartment apparatus for 10 min. One compartment was black with a grid floor and the other white with a rod floor. A smaller center compartment was gray with a solid floor. The amount of time spent in each compartment was recorded. The side in which the rats spent the least amount of time on habituation day was paired with JT09, in that rats receive the compound via oral gavage immediately before compartment placement. On alternating days, rats were treated with saline and confined in the opposite compartment. Rats were confined to each compartment for 25 minutes. Test rats were orally gavaged with saline and given access to the entire apparatus for 10 minutes. The amount of time spent in each compartment was recorded.

[3] = test system: dysphoria (time spent immobile); test: Forced swim assay; assay type: in vivo, rat
Description: The most common reason for discontinuing development of kappa agonists is the induction of dysphoria, which is mediated through CNS kappa receptors. To test for this side effect, we used an established model: the repeated forced swim assay. Rats were placed in a container with 30° C. water without an escape avenue. Time spent immobile during the last 4 min of each trial was recorded. Immobility was defined by a posture in which the forelimbs were motionless in front of the body, hind legs display limited motion, and the tail is directed outward. On day one, rats were placed in the water for 15 min. On the following day, placements consisted of four trials lasting 6 min each, separated by 10 mins. Salvorin A (1 mg/kg, i.p.) or JT09 (20 mg/kg, p.o.) were administered immediately before the first placement. Time spent immobile is a diagnostic of dysphoria and typically increases with each trial. Salvinorin A (a centrally available kappa agonist) was used as a positive control due to its known […] effects such as dysphoria.

[4] = test system: sedation (distance traveled); test: Locomotor open field test
Description: Locomotor Open Field Test.
Sedation and a loss of muscle coordination are common CNS-mediated side effects of opioids. To assess the sedative effects of JT09, rats were given JT09 (20 mg/kg, p.o.) or morphine (10 mg/kg, i.p.) 20 min before placement in an automated (68 l×21 w×21 h cm) activity chambers for a 30 min test. Morphine was used as a comparison group due to its well-known sedative effects.

[5] = Maximum tolerated dose determination; assay type: in vivo, rat; settings: p.o., six rats per dose level, observed 4 days
Description: Maximum Tolerated Dose Determination.
In order to determine the maximum dose of JT09 that can be tolerated, its dose level was increased until the maximum tolerated dose (MTD) was identified or, if MTD dose was not reached, the maximum-administered dose (MAD). […] Six rats were included at each dose level (50, 70, and 90 mg/kg, p.o.). The animals were observed twice daily; body weights and detailed clinical observations for behavioral toxicity (porphyrin staining, changes in activity levels, changes in grooming habits, convulsions, catalepsy, muscular rigidity, and excessive vocalization) were made daily for 4 days after dosing at each level. Doses were chosen based on the compound's ED50 for analgesic potency.

[6] = Multiple dose study (14 days); assay type: in vivo, rat; settings: 30 mg/kg oral daily for 14 days
Excerpt: Tolerance to the analgesic effects of the lead compounds was be assessed using the acetic acid-induced writhing assay (described above). Daily clinical observations for behavioral toxicity (described above) were made during the course of the experiment and body weight and food consumption recorded on study days 3, 5, 7, 9, 11 and 13. On day 15, animals were sacrificed in their home cages by carbon dioxide inhalation from a compressed gas tank. A gross necroscopic analysis was immediately performed following euthanasia.

Chain of kappa opioid receptor (P41145 whole entry): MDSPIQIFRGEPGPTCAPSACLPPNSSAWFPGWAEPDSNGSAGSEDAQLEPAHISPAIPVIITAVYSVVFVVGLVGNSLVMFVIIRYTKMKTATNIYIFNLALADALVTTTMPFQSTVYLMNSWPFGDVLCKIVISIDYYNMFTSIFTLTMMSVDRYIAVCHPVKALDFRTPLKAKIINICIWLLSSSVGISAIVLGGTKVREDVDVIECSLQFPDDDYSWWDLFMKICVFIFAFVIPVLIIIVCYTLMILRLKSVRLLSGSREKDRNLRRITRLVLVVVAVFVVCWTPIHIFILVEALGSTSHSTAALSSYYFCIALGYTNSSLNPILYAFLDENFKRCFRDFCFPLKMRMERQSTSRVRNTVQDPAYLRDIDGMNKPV

With `CCCC[C@@H](NC(=O)[C@@H](Cc1ccccc1)NC(=O)[C@H](N)Cc1ccccc1)C(=O)N[C@H](CCCCN(C)C)C(=O)NCc1ccncc1` [Compound 9] the “EC50, i.v. dose response in writhing assay” value ([1]; i.v.) was 0.032 mg/kg, the “EC50, oral dose-response in acetic acid writhing model” value ([1]; oral) was 4.7 mg/kg and the “EC50, activation of kappa opioid receptor” value (kappa opioid receptor; PathHunter Beta-Arrestin) was “low nM range”. The EC50 (kappa opioid receptor; PathHunter Beta-Arrestin, 3-6 repeats, read-out: 95% confidence levels of EC50, activation of kappa receptors) was 15.3 to 54.5 nM, the “agonist selectivity for kappa over both mu- and delta-opioid receptors” value (kappa opioid receptor; minimal estimate) was > 33,400 and the “conditioned place preference for drug-paired compartment over saline” value [2] was “did not develop a preference; also recorded: had no effect on compartment placement”. For the same molecule, the “immobility time in forced swim versus saline” value ([3]; 20 mg/kg p.o., listed as JT09) was “statistically indistinguishable; also recorded: did not induce more than a baseline time of immobility”, the “immobility time in forced swim relative to salvinorin A” value ([3]; JT09 20 mg/kg p.o. versus salvinorin A 1 mg/kg i.p., all trials) was “lower amounts of time spent immobile” and the “locomotor activity (distance traveled) versus saline” value ([4]; 20 mg/kg p.o., 30 min test) was “statistically indistinguishable”. For the same molecule, the “locomotor activity relative to morphine” value ([4]; JT09 20 mg/kg p.o. versus morphine 10 mg/kg i.p., time bins 1, 2 and 5) was “higher locomotor activity”, the “sedation in locomotor test” value ([4]; JT09 20 mg/kg p.o., morphine 10 mg/kg i.p.) was “showed no sedation” and the “maximum administered dose (MAD) without mortality, loss of more than 10% body weight or overt signs of toxicity” value [5] was 90 mg/kg. For the same molecule, the “tolerance (negative CNS-mediated effects associated with morphine)” value [6] was “does not promote”, the “gross necropsy: heart, stomach, intestines, liver, spleen, pancreas, kidneys, adrenal glands, skeletal muscle, bone, reproductive organs, brain” value ([6]; six rats) was “grossly normal” and the “gross necropsy: lungs” value ([6]; attributed to CO2 euthanasia hemorrhage) was “slight grey discoloration”.
